Where two headings read alike, the source gives them in different places.
Legend:
[1] = system: Shionogi mouse mammary carcinoma cells; assay: Antiandrogenic activity on DHT-stimulated Shionogi mouse mammary carcinoma cell number; assay type: cell-based; settings: for A = Ki OH-Flu/Ki compound: ratio of Ki of hydroxyflutamide versus tested compound, higher values preferable
[2] = system: ear sebaceous glands in the male hamster; assay: Topical antiandrogenic activity, ear sebaceous glands model in the male hamster; assay type: in vivo, Golden Syrian hamster; settings: Mesocricetus auratus, 336 h, topical on left pinna, area of sebaceous glands of left ear, read-out: Ear Area Inhibition. Vs Control (%); for inhibition in vivo at 0.03 mg: dose 30 μg daily for 14 days; for inhibition in vivo at 0.01 mg: dose 10 μg daily for 14 days
Text: • Column 2 represent the daily dose for 14 days of tested compound dissolved in ten μl solution of acetone:ethanol:propylene Glycol (1:1:2; v:v:v) applied onto a region between the two cartilage ridges of the ventral surface of left pinna. • Column 3 represents the percentage of inhibition of the area of the sebaceous glands of the left ear of the treated animals versus the area of the sebaceous glands of the left ear of the control animals.
C—In vivo Assessment of Topical Antiandrogenic Activity
The antiandrogenic activity of compounds for topical use was determined using the ear sebaceous glands model in the male hamster.
Male Golden Syrian Hamsters (SYR) of 110-120 g were obtained from Harlan Sprague-Dawley (Madison, USA) and housed up to 2 per plastic cage in a temperature (22±3° C.) and light (12 h light/day, lights on at 7h15)-controlled environment. The hamsters were fed with Certified Rodent Diet 5002 (pellet) and had access to tap water ad libitum. The animals were acclimatized for at least five days prior to beginning the study. Animals were randomly assigned to groups of eight hamsters. One group of hamsters were castrated under isoflurane-induced anesthesia on the day of dosing initiation (SD 1) and used as control group.
To evaluate the antiandrogenic activity, the tested compounds were applied topically on the inner part of the left ear, once daily, for 14 days. […] For animals of the castrated and intact control groups, one ten-μL vehicle was applied onto the left ear. No solution was applied on the right ear.
On Study Day 15, the hamsters were euthanized by cervical dislocation under isoflurane anesthesia. The left and right ears were collected attached together by the head skin, flat fixed on a paper and then immersed in 10% neutral buffered formalin. Punctures making a circular hole of 6 mm were made on the flat fixed ear in the region where the solution has been applied. These punch-made specimens were collected from each ear. Using a scalpel blade, the collected 6 mm round ear specimens were cut in the middle between the two cartilage ridges. The two equal parts of the ear round specimens were embedded in paraffin. After processing the tissue, the two parts were vertically embedded parallel to each other in such a way that the flat 6 mm area was facing out. From each paraffin block, one section (5 μm thick) was cut and collected on a glass slide. Thus, each slide contained two elongated sections of 6 mm length. Slides were stained with hematoxylin and eosin.
Using the video camera and the lens number X5 of the light microscope, the resulting field appearing on the screen has a length of 0.953 mm. When the first 6 mm long section was examined from the left to the right, the first and second fields were ignored and the third and fourth fields were captured for analysis by the image analyzer. Each field has the length of 0.953 mm. With the help of the screen mouse, the sebaceous glands within the whole field length (0.953 mm) were marked. Also, an area having the length of the whole field and the height between stratum granulosum and the upper edge of the cartilage was drawn.
The total area of the sebaceous glands (μm^2) in each examined field was calculated by the Image Analyser. We also measured the total area, which has the length of 0.953 mm and the height between stratum granulosum and the cartilage. In addition, the percentage of the area occupied by the glands was obtained. Thus, for each ear, two sections were cut and two fields from each section were analyzed. The total of the four readings was averaged and the mean standard error of the mean was calculated by the image analyzer. The results were expressed in μm^2 as the total surface of glands per field and also as percentage of the area occupied by the glands in the tissue.

[3] = Mus musculus, inhibition of DHT-stimulated Shionogi cell number, 10-12 days, read-out: Antiandrogenic activity IC50
[4] = inhibition of DHT-stimulated Shionogi cell number
[5] = Mus musculus, read-out: Antiandrogenic activity IC50 (nM)

Row | Compound | IC50 [1, 3] | A = Ki OH-Flu/Ki compound [1, 4] | further results
1 | N#Cc1ccc(-c2cccc(C(O)C(F)(F)F)c2)cc1C(F)(F)F (stereo not shown) [EM-4265] | 116 nM | 0.7 | inhibition in vivo at 0.03 mg ([2]; topical): 0%
2 | N#Cc1ccc(-c2c(F)cccc2F)cc1C(F)(F)F [EM-4004] | > 500 nM | <0.2 | inhibition in vivo at 0.01 mg ([2]; topical): 60%
3 | N#Cc1ccc(-c2c(F)cccc2F)cc1Cl [EM-4977, 3-chloro-2′,6′-difluoro-biphenyl-4-carbonitrile] |  | 12 | IC50 [1, 5]: 12.8 nM; inhibition in vivo at 0.001 mg ([2]; topical, dose 1 μg daily for 14 days): 25.9%; inhibition in vivo at 0.003 mg ([2]; topical, dose 3 μg daily for 14 days): 48%; inhibition in vivo at 0.01 mg ([2]; topical): 73%
4 | COc1ccc(-c2ccc(C#N)c(C(F)(F)F)c2)c(F)c1 [EM-4174] |  | 2.1 | IC50 [1, 5]: 77 nM; inhibition in vivo at 0.01 mg ([2]; topical): 86%
5 | N#Cc1ccc(-c2ccc(N)cc2)cc1C(F)(F)F [EM-4186] | 118 nM | 1.2 | inhibition in vivo at 0.03 mg ([2]; topical): 0%
6 | N#Cc1ccc(-c2ccc(F)cc2C(=O)Nc2ccc(Cl)cc2)cc1C(F)(F)F [EM-4863] |  | 0.3 | IC50 ([1]; inhibition of DHT-stimulated Shionogi cell number, 10-12 days, read-out: Antiandrogenic activity IC50): 161 nM; inhibition in vivo at 0.03 mg [2]: 21%
7 | N#Cc1ccc(-c2cc(F)ccc2F)cc1C(F)(F)F [EM-4046] | > 500 nM | <0.2 | inhibition in vivo at 0.03 mg ([2]; topical): 5%
8 | COc1cc(F)ccc1-c1ccc(C#N)c(C(F)(F)F)c1 [EM-4068] |  | 0.9 | IC50 [1, 5]: 96 nM; inhibition in vivo at 0.03 mg ([2]; topical): 15%
9 | CCCN(CCC)C(=O)c1cc(F)ccc1-c1ccc(C#N)c(C(F)(F)F)c1 [EM-4845] | > 500 nM | <0.2 | 
10 | COc1ccc(-c2ccc(F)cc2F)cc1Br [EM-4871] | > 500 nM | <0.2 | 
11 | N#Cc1cc(-c2ccc(C#N)c(C(F)(F)F)c2)ccc1F [EM-4056] | > 500 nM | <0.2 | 
12 | N#Cc1ccc(-c2ccc(F)cc2F)cc1Cl [EM-4283, 3-chloro-2′,4′-difluoro-biphenyl-4-carbonitrile] |  | 2.3 | IC50 [1, 5]: 37 nM
13 | CCN(CC)C(=O)c1cc(F)ccc1-c1ccc(C#N)c(C(F)(F)F)c1 [EM-4841] | > 500 nM | <0.2 | 
14 | N#Cc1ccc(-c2ccc(C#N)c([N+](=O)[O-])c2)cc1 [EM-4344] | > 500 nM | <0.2 | 
15 | COc1ccc(-c2ccc(C#N)c(C(F)(F)F)c2)cc1 [EM-3394] |  | 1.1 | IC50 [1, 5]: 49.5 nM
16 | N#Cc1ccc(-c2c(F)cc(F)cc2F)cc1Cl [EM-4851] | > 500 nM | <0.2 | 
17 | COc1ccc(Cl)cc1-c1ccc(C#N)c(C(F)(F)F)c1 [EM-3747] | > 500 nM | <0.2 | 
18 | N#Cc1ccc(-c2ccc(C(N)=O)cc2)cc1C(F)(F)F [EM-3971] | > 500 nM | <0.2 | 
19 | CSc1cc(C#N)ccc1-c1ccc(C#N)c(C(F)(F)F)c1 [EM-4227] | 121 nM | 1.2 | 
20 | N#Cc1ccc(-c2cc([N+](=O)[O-])c(F)cc2F)cc1C(F)(F)F [EM-4867] | > 500 nM | <0.2 | 
21 | COc1ccc(-c2ccc(C#N)c(C(F)(F)F)c2)cc1F [EM-4057] |  | 1.2 | IC50 [1, 5]: 84 nM; inhibition in vivo at 0.01 mg ([2]; topical): 64%
22 | CNC(=O)c1cc(F)ccc1-c1ccc(C#N)c(C(F)(F)F)c1 [EM-4961] | > 500 nM | <0.2 | 
23 | N#Cc1ccc(-c2ccc(C#N)c(C(F)(F)F)c2)cc1Cl [EM-4108] | 112 nM | 0.6 | 
24 | N#Cc1ccc(-c2ccc(Br)c([N+](=O)[O-])c2)cc1 [EM-4338] | > 500 nM | <0.2 | 
25 | N#Cc1ccc(-c2ccc(Cl)cc2)cc1C(F)(F)F [EM-3703] |  | 0.3 | IC50 [1, 5]: 97 nM

Row | Compound | IC50 [1, 3] | A = Ki OH-Flu/Ki compound [1, 4] | further results
26 | CSc1cc(-c2ccc(F)cc2F)ccc1C#N [EM-4288] | 28 nM | 4.4 | 
27 | N#Cc1ccc(-c2ccccc2)cc1C(F)(F)F [EM-4118] | > 500 nM | <0.2 | 
28 | COc1ccc(-c2ccc(C#N)c(C(F)(F)F)c2)cc1Br [EM-4080] | 102 nM | 0.6 | inhibition in vivo at 0.03 mg ([2]; topical): 5%
29 | CSc1cc(-c2ccc(C#N)cc2)ccc1C#N [EM-4285] | > 500 nM | <0.2 | 
30 | N#Cc1ccc(-c2ccc(Cl)c(C(F)(F)F)c2)cc1 [EM-4248] | > 500 nM | <0.2 | 
31 | CCCCNC(=O)c1cc(F)ccc1-c1ccc(C#N)c(C(F)(F)F)c1 [EM-4856] | > 500 nM | <0.2 | 
32 | CS(=O)(=O)c1cc(C#N)ccc1-c1ccc(C#N)c(C(F)(F)F)c1 [EM-4255] | > 500 nM | <0.2 | 
33 | N#Cc1ccc(-c2ccc(F)cc2C(=O)Nc2ccc(F)cc2F)cc1C(F)(F)F [EM-5038] | > 500 nM | <0.2 | 
34 | N#Cc1ccc(-c2ccc(C#N)c(C(F)(F)F)c2)c(F)c1 [EM-4189] | 132 nM | 1.1 | 
35 | CN(C)CCN(C)C(=O)c1cc(F)ccc1-c1ccc(C#N)c(C(F)(F)F)c1 [EM-4980] | > 500 nM | <0.2 | 
36 | N#Cc1ccc(-c2ccc(C(F)(F)F)cc2)cc1C(F)(F)F [EM-4051] | > 500 nM | <0.2 | 
37 | CC(O)(c1ccc(-c2ccc(C#N)c(C(F)(F)F)c2)cc1)C(F)(F)F (stereo not shown) [EM-4026] | > 500 nM | <0.2 | 
38 | N#Cc1ccc(-c2ccc(C(O)C(F)(F)F)cc2)cc1C(F)(F)F (stereo not shown) [EM-3998] | > 500 nM | <0.2 | 
39 | N#Cc1ccc(-c2ccc(F)cc2[N+](=O)[O-])cc1C(F)(F)F [EM-4234] |  | 3.2 | IC50 [1, 5]: 43.2 nM
40 | N#Cc1ccc(-c2ccc(Br)c(C(F)(F)F)c2)cc1 [EM-4177] | > 500 nM | <0.2 | 
41 | COc1ccc(-c2ccc(C#N)cc2)cc1 [EM-3704] | > 500 nM | <0.2 | 
42 | N#Cc1ccc(-c2ccc(F)c(C(F)(F)F)c2)cc1 [EM-4249] | > 500 nM | <0.2 | 
43 | COc1ccc(-c2ccc(C#N)c(C(F)(F)F)c2)c(C(N)=O)c1 [EM-4905] | > 500 nM | <0.2 | 
44 | CC(O)(c1ccc(-c2ccc(C#N)cc2)cc1)C(F)(F)F (stereo not shown) [EM-3979] | > 500 nM | <0.2 | 
45 | N#Cc1ccc(-c2ccc(C#N)c(F)c2)cc1 [EM-4280] | > 500 nM | <0.2 | 
46 | N#Cc1ccc(-c2cc(F)c(F)c(F)c2)cc1C(F)(F)F [EM-4116] | > 500 nM | <0.2 | 
47 | CN(C)C(=O)c1cc(F)ccc1-c1ccc(C#N)c(C(F)(F)F)c1 [EM-4865] | > 500 nM | <0.2 | 
48 | N#Cc1ccc(-c2ccc(F)c([N+](=O)[O-])c2)cc1C(F)(F)F [EM-4230] | > 500 nM | <0.2 | 
49 | N#Cc1ccc(-c2ccc(N)cc2)cc1 [EM-4049] | > 500 nM | <0.2 | 
50 | CS(=O)(=O)Nc1ccc(-c2ccc(C#N)c(C(F)(F)F)c2)cc1 [EM-4244] | > 500 nM | <0.2 | 

From patent US6933321B2, “Antiandrogenic biphenyls” (Endorecherche, Inc., priority 2002, dated 2005)
